{"source": "patent US20100137449A1", "about": "“SUBSTITUTED 1,3-CYCLOPENTADIONE MULTI-TARGET PROTEIN KINASE MODULATORS OF CANCER, ANGIOGENESIS AND THE INFLAMMATORY PATHWAYS ASSOCIATED THEREWITH” (METAPROTEOMICS, LLC, priority 2007, published 2010)", "assay_in_all_cases": "KinaseProfiler Assay", "key": {"MLCK(h)": {"target": "MLCK(h)"}, "EphB3(h)": {"target": "T1, EphB3(h) (Homo sapiens, UniProt P54753)", "T1 sequence (P54753 34-998)": "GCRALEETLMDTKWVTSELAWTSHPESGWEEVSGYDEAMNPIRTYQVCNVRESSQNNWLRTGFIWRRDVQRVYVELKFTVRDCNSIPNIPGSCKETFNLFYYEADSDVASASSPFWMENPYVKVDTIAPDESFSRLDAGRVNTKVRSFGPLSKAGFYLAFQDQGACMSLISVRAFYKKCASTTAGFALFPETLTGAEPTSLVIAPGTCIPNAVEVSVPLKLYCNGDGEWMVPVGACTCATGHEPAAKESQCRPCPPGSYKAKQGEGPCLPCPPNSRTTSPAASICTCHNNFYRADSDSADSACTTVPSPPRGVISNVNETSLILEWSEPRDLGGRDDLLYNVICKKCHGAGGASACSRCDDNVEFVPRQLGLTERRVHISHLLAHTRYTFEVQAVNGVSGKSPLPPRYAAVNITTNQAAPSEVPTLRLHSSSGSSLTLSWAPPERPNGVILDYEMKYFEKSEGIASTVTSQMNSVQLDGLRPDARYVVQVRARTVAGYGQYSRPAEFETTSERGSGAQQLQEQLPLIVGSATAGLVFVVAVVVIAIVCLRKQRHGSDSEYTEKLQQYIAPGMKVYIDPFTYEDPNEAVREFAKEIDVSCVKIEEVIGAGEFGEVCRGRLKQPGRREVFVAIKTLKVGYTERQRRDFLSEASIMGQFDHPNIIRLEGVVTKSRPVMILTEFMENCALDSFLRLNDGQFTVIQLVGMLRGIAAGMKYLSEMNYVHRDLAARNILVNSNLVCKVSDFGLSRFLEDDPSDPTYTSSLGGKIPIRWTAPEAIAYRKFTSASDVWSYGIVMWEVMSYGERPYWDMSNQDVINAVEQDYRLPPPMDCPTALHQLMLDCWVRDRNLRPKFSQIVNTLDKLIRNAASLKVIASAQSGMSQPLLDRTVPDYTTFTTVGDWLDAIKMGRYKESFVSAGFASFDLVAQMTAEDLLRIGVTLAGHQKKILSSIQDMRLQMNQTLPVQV"}, "Plk3(h)": {"target": "Plk3(h) (Homo sapiens, UniProt Q9H4B4)", "sequence (Q9H4B4 whole entry)": "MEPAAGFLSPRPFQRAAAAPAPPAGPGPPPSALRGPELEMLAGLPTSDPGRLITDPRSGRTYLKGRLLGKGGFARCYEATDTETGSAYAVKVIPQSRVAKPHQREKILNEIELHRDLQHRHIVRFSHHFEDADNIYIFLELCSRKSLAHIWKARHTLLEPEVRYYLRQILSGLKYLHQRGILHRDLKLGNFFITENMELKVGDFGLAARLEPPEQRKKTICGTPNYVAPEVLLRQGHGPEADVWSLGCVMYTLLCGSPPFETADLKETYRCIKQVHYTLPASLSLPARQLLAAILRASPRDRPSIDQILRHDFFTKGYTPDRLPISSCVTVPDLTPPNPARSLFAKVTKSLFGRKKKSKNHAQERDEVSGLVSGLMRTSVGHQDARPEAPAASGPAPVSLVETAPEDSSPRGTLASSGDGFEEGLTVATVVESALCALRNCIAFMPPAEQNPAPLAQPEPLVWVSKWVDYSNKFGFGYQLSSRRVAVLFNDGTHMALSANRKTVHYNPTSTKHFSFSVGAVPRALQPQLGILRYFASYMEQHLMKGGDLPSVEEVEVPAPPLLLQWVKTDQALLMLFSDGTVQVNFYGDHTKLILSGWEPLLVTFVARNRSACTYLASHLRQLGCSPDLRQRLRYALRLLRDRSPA"}, "CHK2(h)": {"target": "CHK2(h) (Homo sapiens, UniProt O96017)", "sequence (O96017 whole entry)": "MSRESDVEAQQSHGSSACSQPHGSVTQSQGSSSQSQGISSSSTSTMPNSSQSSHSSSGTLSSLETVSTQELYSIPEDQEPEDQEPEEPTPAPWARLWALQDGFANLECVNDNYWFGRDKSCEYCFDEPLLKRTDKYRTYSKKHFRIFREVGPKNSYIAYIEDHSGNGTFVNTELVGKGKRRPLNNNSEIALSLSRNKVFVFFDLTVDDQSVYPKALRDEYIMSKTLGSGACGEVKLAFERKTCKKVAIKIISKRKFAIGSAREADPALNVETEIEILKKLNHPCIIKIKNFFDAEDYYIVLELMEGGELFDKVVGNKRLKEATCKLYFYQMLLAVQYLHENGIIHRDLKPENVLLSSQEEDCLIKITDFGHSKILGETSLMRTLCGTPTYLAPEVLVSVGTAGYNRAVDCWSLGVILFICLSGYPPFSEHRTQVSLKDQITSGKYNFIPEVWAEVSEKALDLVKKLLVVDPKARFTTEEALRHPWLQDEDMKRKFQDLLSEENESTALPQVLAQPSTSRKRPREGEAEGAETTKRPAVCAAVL"}, "CDK6/cydinD3(h)": {"target": "CDK6/cydinD3(h) (Homo sapiens, UniProt Q00534)", "sequence (Q00534 whole entry)": "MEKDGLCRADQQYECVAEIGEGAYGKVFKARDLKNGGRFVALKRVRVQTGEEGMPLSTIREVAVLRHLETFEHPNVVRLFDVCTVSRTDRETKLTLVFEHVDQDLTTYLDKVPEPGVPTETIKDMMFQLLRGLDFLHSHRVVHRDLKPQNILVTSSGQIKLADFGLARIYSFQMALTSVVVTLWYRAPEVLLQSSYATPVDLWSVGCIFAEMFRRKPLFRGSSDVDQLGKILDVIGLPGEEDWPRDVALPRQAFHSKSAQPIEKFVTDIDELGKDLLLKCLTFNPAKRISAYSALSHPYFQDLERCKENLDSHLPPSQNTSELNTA", "sequence (P30281 whole entry partner)": "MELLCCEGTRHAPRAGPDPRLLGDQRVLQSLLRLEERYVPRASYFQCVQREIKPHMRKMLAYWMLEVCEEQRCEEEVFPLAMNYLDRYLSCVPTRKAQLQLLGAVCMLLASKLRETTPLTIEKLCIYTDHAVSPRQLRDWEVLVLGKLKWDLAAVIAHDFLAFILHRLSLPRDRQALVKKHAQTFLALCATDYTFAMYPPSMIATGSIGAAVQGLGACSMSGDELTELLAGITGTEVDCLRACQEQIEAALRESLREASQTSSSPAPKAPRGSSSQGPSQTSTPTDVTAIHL"}, "ULK2(h)": {"target": "T2, ULK2(h) (Homo sapiens, UniProt Q8IYT8)", "T2 sequence (Q8IYT8 1-1036)": "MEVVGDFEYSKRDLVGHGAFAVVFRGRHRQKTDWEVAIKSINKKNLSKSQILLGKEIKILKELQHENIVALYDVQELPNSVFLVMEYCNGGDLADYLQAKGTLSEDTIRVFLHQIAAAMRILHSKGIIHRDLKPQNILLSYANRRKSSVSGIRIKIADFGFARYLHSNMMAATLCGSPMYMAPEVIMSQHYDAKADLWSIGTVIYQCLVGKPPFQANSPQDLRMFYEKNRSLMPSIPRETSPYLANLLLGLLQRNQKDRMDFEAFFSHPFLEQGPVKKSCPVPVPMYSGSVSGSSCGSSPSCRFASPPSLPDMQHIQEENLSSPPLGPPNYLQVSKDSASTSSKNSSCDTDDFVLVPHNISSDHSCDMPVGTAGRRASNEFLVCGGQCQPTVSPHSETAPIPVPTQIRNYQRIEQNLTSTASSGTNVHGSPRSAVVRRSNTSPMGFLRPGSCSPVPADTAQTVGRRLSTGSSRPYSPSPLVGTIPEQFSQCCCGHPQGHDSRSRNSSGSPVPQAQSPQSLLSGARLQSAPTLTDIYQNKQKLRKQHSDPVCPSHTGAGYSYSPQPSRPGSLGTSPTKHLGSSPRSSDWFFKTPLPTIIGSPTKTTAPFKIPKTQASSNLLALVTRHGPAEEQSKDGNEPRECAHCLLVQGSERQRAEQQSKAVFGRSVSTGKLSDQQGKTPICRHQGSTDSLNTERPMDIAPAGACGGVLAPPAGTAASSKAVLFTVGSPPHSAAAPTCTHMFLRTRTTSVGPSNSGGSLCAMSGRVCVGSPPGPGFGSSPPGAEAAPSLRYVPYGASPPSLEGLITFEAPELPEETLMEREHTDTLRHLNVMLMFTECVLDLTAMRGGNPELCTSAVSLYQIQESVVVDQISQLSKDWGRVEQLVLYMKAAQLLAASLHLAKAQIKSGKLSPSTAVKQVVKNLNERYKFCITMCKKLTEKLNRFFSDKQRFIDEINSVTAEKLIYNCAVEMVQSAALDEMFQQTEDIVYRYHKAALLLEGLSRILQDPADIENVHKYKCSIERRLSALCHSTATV"}, "SRPK2(h)": {"target": "SRPK2(h) (Homo sapiens, UniProt P78362)", "sequence (P78362 whole entry)": "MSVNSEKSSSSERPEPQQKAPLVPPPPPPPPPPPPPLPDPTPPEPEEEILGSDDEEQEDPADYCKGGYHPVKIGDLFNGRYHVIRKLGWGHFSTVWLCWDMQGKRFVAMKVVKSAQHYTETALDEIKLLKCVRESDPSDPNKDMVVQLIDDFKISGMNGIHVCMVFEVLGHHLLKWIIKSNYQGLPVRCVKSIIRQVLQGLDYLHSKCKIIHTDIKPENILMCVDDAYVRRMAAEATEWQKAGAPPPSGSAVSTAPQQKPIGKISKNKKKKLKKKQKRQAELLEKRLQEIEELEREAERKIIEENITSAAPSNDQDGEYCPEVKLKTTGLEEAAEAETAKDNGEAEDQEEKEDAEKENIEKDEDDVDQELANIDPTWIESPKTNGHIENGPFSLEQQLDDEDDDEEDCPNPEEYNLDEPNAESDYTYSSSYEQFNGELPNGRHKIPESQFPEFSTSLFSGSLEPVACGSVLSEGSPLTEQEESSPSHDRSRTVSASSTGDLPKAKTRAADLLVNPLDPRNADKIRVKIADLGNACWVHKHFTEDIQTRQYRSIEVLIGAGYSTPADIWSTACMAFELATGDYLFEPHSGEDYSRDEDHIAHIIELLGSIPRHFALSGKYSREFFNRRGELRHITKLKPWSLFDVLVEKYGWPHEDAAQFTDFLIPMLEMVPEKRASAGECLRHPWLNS"}, "Fes(h)": {"target": "Fes(h) (Homo sapiens, UniProt P07332)", "sequence (P07332 whole entry)": "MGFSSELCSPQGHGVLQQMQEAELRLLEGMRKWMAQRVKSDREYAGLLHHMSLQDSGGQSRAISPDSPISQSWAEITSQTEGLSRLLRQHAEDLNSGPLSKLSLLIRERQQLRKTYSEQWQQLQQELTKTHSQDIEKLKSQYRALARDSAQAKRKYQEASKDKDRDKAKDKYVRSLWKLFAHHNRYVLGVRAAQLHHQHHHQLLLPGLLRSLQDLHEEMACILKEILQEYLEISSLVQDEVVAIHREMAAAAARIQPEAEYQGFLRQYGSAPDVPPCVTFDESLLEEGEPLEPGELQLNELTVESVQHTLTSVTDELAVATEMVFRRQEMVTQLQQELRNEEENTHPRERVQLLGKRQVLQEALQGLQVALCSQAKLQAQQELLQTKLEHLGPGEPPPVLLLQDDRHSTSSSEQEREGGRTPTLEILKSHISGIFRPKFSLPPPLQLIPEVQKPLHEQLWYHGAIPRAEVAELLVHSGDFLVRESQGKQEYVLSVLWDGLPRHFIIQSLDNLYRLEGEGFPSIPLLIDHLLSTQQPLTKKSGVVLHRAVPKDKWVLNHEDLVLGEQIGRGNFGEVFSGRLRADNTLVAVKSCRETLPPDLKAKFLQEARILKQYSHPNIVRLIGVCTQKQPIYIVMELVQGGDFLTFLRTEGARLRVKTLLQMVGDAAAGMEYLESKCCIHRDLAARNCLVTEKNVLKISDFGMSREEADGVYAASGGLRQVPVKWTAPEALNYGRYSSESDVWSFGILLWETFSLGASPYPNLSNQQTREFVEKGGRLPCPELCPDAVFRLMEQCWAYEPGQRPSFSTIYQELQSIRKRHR"}}, "data": [{"compound": "CC(C)CCC(=O)[C@]1(O)C(O)=C(C(=O)C(C)C)C(=O)[C@H]1CCC(C)C", "note": "[TH2, tetrahydroiso-cohumulone]", "values": [{"measurement": "kinase inhibition", "setting": "MLCK(h); 1 μg/ml", "value": "98% of control"}, {"measurement": "kinase inhibition", "setting": "MLCK(h); 5 μg/ml", "value": "96% of control"}, {"measurement": "kinase inhibition", "setting": "MLCK(h); 25 μg/ml", "value": "105% of control"}, {"measurement": "kinase inhibition", "setting": "MLCK(h); 50 μg/ml", "value": "93% of control"}, {"measurement": "kinase inhibition", "setting": "MLCK(h); 100 μg/ml", "value": "86% of control"}, {"measurement": "kinase inhibition", "setting": "EphB3(h); 1 μg/ml", "value": "80% of control"}, {"measurement": "kinase inhibition", "setting": "EphB3(h); 5 μg/ml", "value": "71% of control"}, {"measurement": "kinase inhibition", "setting": "EphB3(h); 25 μg/ml", "value": "69% of control"}, {"measurement": "kinase inhibition", "setting": "EphB3(h); 50 μg/ml", "value": "62% of control"}, {"measurement": "kinase inhibition", "setting": "EphB3(h); 100 μg/ml", "value": "57% of control"}, {"measurement": "kinase inhibition", "setting": "Plk3(h); 1 μg/ml", "value": "120% of control"}, {"measurement": "kinase inhibition", "setting": "Plk3(h); 5 μg/ml", "value": "105% of control"}, {"measurement": "kinase inhibition", "setting": "Plk3(h); 25 μg/ml", "value": "104% of control"}, {"measurement": "kinase inhibition", "setting": "Plk3(h); 50 μg/ml", "value": "99% of control"}, {"measurement": "kinase inhibition", "setting": "Plk3(h); 100 μg/ml", "value": "86% of control"}, {"measurement": "kinase inhibition", "setting": "CHK2(h); 1 μg/ml", "value": "107% of control"}, {"measurement": "kinase inhibition", "setting": "CHK2(h); 5 μg/ml", "value": "107% of control"}, {"measurement": "kinase inhibition", "setting": "CHK2(h); 25 μg/ml", "value": "105% of control"}, {"measurement": "kinase inhibition", "setting": "CHK2(h); 50 μg/ml", "value": "108% of control"}, {"measurement": "kinase inhibition", "setting": "CHK2(h); 100 μg/ml", "value": "97% of control"}, {"measurement": "kinase inhibition", "setting": "CDK6/cydinD3(h); 1 μg/ml", "value": "120% of control"}, {"measurement": "kinase inhibition", "setting": "CDK6/cydinD3(h); 5 μg/ml", "value": "109% of control"}, {"measurement": "kinase inhibition", "setting": "CDK6/cydinD3(h); 25 μg/ml", "value": "117% of control"}, {"measurement": "kinase inhibition", "setting": "CDK6/cydinD3(h); 50 μg/ml", "value": "105% of control"}, {"measurement": "kinase inhibition", "setting": "CDK6/cydinD3(h); 100 μg/ml", "value": "92% of control"}, {"measurement": "kinase inhibition", "setting": "ULK2(h); 1 μg/ml", "value": "102% of control"}, {"measurement": "kinase inhibition", "setting": "ULK2(h); 5 μg/ml", "value": "52% of control"}, {"measurement": "kinase inhibition", "setting": "ULK2(h); 25 μg/ml", "value": "77% of control"}, {"measurement": "kinase inhibition", "setting": "ULK2(h); 50 μg/ml", "value": "106% of control"}, {"measurement": "kinase inhibition", "setting": "ULK2(h); 100 μg/ml", "value": "105% of control"}, {"measurement": "kinase inhibition", "setting": "SRPK2(h); 1 μg/ml", "value": "105% of control"}, {"measurement": "kinase inhibition", "setting": "SRPK2(h); 5 μg/ml", "value": "104% of control"}, {"measurement": "kinase inhibition", "setting": "SRPK2(h); 25 μg/ml", "value": "99% of control"}, {"measurement": "kinase inhibition", "setting": "SRPK2(h); 50 μg/ml", "value": "91% of control"}, {"measurement": "kinase inhibition", "setting": "SRPK2(h); 100 μg/ml", "value": "88% of control"}, {"measurement": "kinase inhibition", "setting": "Fes(h); 1 μg/ml", "value": "140% of control"}, {"measurement": "kinase inhibition", "setting": "Fes(h); 5 μg/ml", "value": "120% of control"}, {"measurement": "kinase inhibition", "setting": "Fes(h); 25 μg/ml", "value": "105% of control"}, {"measurement": "kinase inhibition", "setting": "Fes(h); 50 μg/ml", "value": "99% of control"}, {"measurement": "kinase inhibition", "setting": "Fes(h); 100 μg/ml", "value": "86% of control"}]}]}
